Measurements published in patent publication US8546442B2, “Pyrazolopiperidine compounds as CCR1 receptor antagonists” (Boehringer Ingelheim International GmbH, priority 2010, dated 2013).

biological target: T1, CCR1 (Homo sapiens, UniProt P32246); assay: calcium flux in CCR1 transfected cells, Method B (Calcium 4 dye, HAMAMATSU FDSS6000); assay type: cell-based; details: cells stably expressing recombinant CCR1 and G-alpha-16, MIP-1alpha at EC80
T1 sequence (P32246 1-355): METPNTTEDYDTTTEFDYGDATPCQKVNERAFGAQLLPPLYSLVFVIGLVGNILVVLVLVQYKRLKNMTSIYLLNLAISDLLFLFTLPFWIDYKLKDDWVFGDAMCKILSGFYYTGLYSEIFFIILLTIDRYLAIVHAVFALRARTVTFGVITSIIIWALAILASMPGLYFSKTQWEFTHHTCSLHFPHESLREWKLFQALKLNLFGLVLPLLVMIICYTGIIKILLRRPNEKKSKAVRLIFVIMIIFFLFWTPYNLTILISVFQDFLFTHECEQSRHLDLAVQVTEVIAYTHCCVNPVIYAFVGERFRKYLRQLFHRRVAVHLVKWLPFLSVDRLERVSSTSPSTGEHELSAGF
Method: Compounds are assessed for the ability to block the interaction of CCR1 and MIP-1α in a functional cellular assay measuring calcium flux in CCR1 transfected cells.
Method B: Non-adherent cells purchased from Chemicon Corporation (HTS005C), stably expressing recombinant CCR1 and G-alpha-16 are grown in RPMI 1640 medium (Mediatech 10-080-CM) supplemented with 10% FBS, 0.4 mg/mL Geneticin and penicillin/streptomycin. On the day of the assay, the cells are loaded with Calcium 4 dye (Molecular Devices R7448) with Probenecid (Invitrogen P346400) at 8E5 cells/mL for 1 hour at room temperature. After 1 hour, they are seeded in a 384-well tissue culture-treated plate at a density of 20,000 cells/well. Appropriately diluted test compound is added to the well to achieve a top concentration of 3,000 nM (diluted 4-fold with 10 doses total). The final concentration of DMSO is 1%. The buffer is HBSS (Invitrogen 14025) with 20 mM HEPES at pH 7.4. The cells incubate 30 minutes at 37 C and then 30 minutes at room temperature. The plates are transferred to the HAMAMATSU FDSS6000 where MIP-1alpha in 1% BSA is added at the EC80 final concentration. All plates must be read within 4 hours of the start of dye-loading. Wells+/−MIP-1alpha containing diluted DMSO instead of compound serve as the controls. Data are analyzed using Activity Base software.

Row | Structure (SMILES) | IC50 [nM]
1 | C[C@H](NC(=O)N1CCCc2c1cnn2-c1ccc(F)cc1)c1ccccc1 [Example 2] | 453
2 | O=C(NCCc1ccccc1)N1CCCc2c1cnn2-c1ccc(F)cc1 [Example 3] | 126
3 | Cc1ccccc1CNC(=O)N1CCCc2c1cnn2-c1ccc(F)cc1 [Example 4] | 283
4 | Cc1ccc(CNC(=O)N2CCCc3c2cnn3-c2ccc(F)cc2)cc1 [Example 5] | 90
5 | C[C@@H](NC(=O)N1CCCc2c1cnn2-c1ccc(F)cc1)c1ccccc1 [Example 6] | 125
6 | O=C(NCc1ccc(F)cc1)N1CCCc2c1cnn2-c1ccc(F)cc1 [Example 7] | 183
7 | O=C(NCc1ccccc1F)N1CCCc2c1cnn2-c1ccc(F)cc1 [Example 8] | 266
8 | O=C(NCc1cccc(F)c1)N1CCCc2c1cnn2-c1ccc(F)cc1 [Example 9] | 108
9 | COc1ccc(CNC(=O)N2CCCc3c2cnn3-c2ccc(F)cc2)cc1 [Example 10] | 266
10 | COc1ccccc1CNC(=O)N1CCCc2c1cnn2-c1ccc(F)cc1 [Example 11] | 610
11 | O=C(NCc1ccccc1Cl)N1CCCc2c1cnn2-c1ccc(F)cc1 [Example 12] | 138
12 | O=C(NCc1ccc(Cl)cc1)N1CCCc2c1cnn2-c1ccc(F)cc1 [Example 13] | 45
13 | COc1ccc([C@H](C)NC(=O)N2CCCc3c2cnn3-c2ccc(F)cc2)cc1 [Example 14] | 102
14 | O=C(Nc1cccc(C(F)(F)F)c1)N1CCCc2c1cnn2-c1ccc(F)cc1 [Example 15] | 115
15 | O=C(NCc1ccc(Cl)cc1Cl)N1CCCc2c1cnn2-c1ccc(F)cc1 [Example 16] | 12
16 | O=C(NCc1ccc(Cl)c(Cl)c1)N1CCCc2c1cnn2-c1ccc(F)cc1 [Example 17] | 1
17 | Cc1cccc(CNC(=O)N2CCCc3c2cnn3-c2ccc(F)cc2)c1 [Example 18] | 131
18 | O=C(NCc1ccccc1)N1CCCc2c1cnn2-c1ccc(F)cc1 [Example 19] | 395
19 | COc1cccc(CNC(=O)N2CCCc3c2cnn3-c2ccc(F)cc2)c1 [Example 20] | 91

Row | Structure (SMILES) | IC50 [nM]
20 | O=C(NCc1cccc(C(F)(F)F)c1)N1CCCc2c1cnn2-c1ccc(F)cc1 [Example 21, 1-(4-Fluorophenyl)-N-[3-(trifluoromethyl)benzyl]-1,5,6,7-tetrahydro-4H-pyrazolo[4,3-b]pyridine-4-carboxamide] | 1
21 | O=C(NCc1ccc(S(=O)(=O)N2CCOCC2)cc1)N1CCCc2c1cnn2-c1ccc(F)cc1 [Example 27] | 68
22 | CNS(=O)(=O)c1cccc(CNC(=O)N2CCCc3c2cnn3-c2ccc(F)cc2)c1 [Example 29] | 16
23 | CS(=O)(=O)c1ccc(CNC(=O)N2CCCc3c2cnn3-c2ccc(F)cc2)cn1 [Example 30] | 94
24 | CS(=O)(=O)c1cc(CNC(=O)N2CCCc3c2cnn3-c2ccc(F)cc2)ccn1 [Example 32] | 34
25 | O=C(NCc1ccc(Br)cc1)N1CCCc2c1cnn2-c1ccc(F)cc1 [Example 37] | 40
26 | CS(=O)(=O)c1ccc(CNC(=O)N2CCCc3c2cnn3-c2ccc(F)cc2)cc1O [Example 43, 1-(4-Fluorophenyl)-1,5,6,7-tetrahydro-pyrazolo[4,3-b]pyridine-4-carboxylic acid 3-hydroxy-4-methanesulfonyl-benzylamide] | 25
27 | C[C@H](NC(=O)N1CCCc2c1cnn2-c1ccc(F)cc1)c1cncc(S(C)(=O)=O)c1 [Example 44, 1-(4-Fluorophenyl)-1,5,6,7-tetrahydro-pyrazolo[4,3-b]pyridine-4-carboxylic acid [(S)-1-(5-methanesulfonyl-pyridin-3-yl)-ethyl]-amide] | 18
28 | C[C@H](NC(=O)N1CCCc2c1cnn2-c1ccc(F)cc1)c1ccc(S(C)(=O)=O)nc1 [Example 52] | 128
29 | CC1CCc2c(cnn2-c2ccc(F)cc2)N1C(=O)NCc1ccnc(S(C)(=O)=O)c1 (stereo not drawn) [Example 53] | 1280
30 | CC1CCc2c(cnn2-c2ccc(F)cc2)N1C(=O)N[C@@H](C)c1ccnc(S(C)(=O)=O)c1 (stereo partly drawn) [Example 54] | 684
31 | CCC[C@H](NC(=O)N1CCCc2c1cnn2C1CCCCC1)c1ccnc(S(C)(=O)=O)c1 [Example 65] | 330
32 | CCC[C@H](NC(=O)N1CCCc2c1cnn2C1CCCC1)c1ccnc(S(C)(=O)=O)c1 [Example 67] | 194
33 | CCC[C@H](NC(=O)N1CCCc2c1cnn2-c1ccc(Cl)cc1)c1ccnc(S(C)(=O)=O)c1 [Example 71] | 0.3
34 | C[C@H](NC(=O)N1CC(C(F)(F)F)Cc2c1cnn2-c1ccc(F)cc1)c1ccnc(S(C)(=O)=O)c1 (stereo partly drawn) [Example 83] | 1260
35 | CCC[C@H](NC(=O)N1CCCc2c1cnn2-c1ccc(F)c(Cl)c1)c1ccnc(S(C)(=O)=O)c1 [Example 86] | 2
36 | CCC[C@H](NC(=O)N1CCc2c1cnn2-c1ccc(F)cc1)c1ccnc(C)c1 [Example 88] | 52
37 | CCC[C@H](NC(=O)N1CCCc2c1c(C)nn2-c1ccc(F)cc1)c1ccnc(S(C)(=O)=O)c1 [Example 98] | 1570

Further lines, results first:

Row | IC50 [nM] | Structure (SMILES)
38 | 37 | CCC[C@H](NC(=O)N1c2cnn(-c3ccc(F)cc3)c2CCC1C(F)(F)F)c1cc(S(C)(=O)=O)ccc1F (single isomer, unassigned) [Example 77]
39 | 31 | CCC[C@H](NC(=O)N1c2cnn(-c3ccc(F)cc3)c2CCC1C)c1ccnc(S(C)(=O)=O)c1 (single isomer, unassigned) [Example 80]
40 | 4 | CCC[C@H](NC(=O)N1c2cnn(-c3ccc(F)cc3)c2CCC1C)c1ccnc(S(C)(=O)=O)c1 (single isomer, unassigned) [Example 81]
41 | 84 | CC[C@H](NC(=O)N1c2cnn(-c3ccc(F)cc3)c2CCC1C(F)(F)F)c1ccnc(S(C)(=O)=O)c1 (stereo partly drawn) [Example 58]
42 | 1850 | CS(=O)(=O)c1cc(C2(NC(=O)N3c4cnn(-c5ccc(F)cc5)c4CCC3C(F)(F)F)CC2)ccn1 (stereo not drawn) [Example 64]
43 | 205 | CCC[C@H](NC(=O)N1c2cnn(-c3ccc(F)cc3)c2CCC1C(F)(F)F)c1ccc(Br)cc1F (stereo partly drawn) [Example 68]
44 | 11 | CCC[C@H](NC(=O)N1c2cnn(-c3ccc(F)cc3)c2CCC1C(F)(F)F)c1ccc(S(C)(=O)=O)cc1F (stereo partly drawn) [Example 69]
45 | 5 | CCC[C@H](NC(=O)N1c2cnn(-c3ccc(F)cc3)c2CCC1C)c1ccnc(S(C)(=O)=O)c1 (stereo partly drawn) [Example 70]
46 | 344 | CCC[C@H](NC(=O)N1CCCCc2c1cnn2-c1ccc(F)cc1)c1ccnc(S(C)(=O)=O)c1 [Example 72]
47 | 640 | CCC[C@H](NC(=O)N1CCCCc2c1cnn2-c1ccc(F)cc1)c1cncc(S(C)(=O)=O)c1 [Example 75]
48 | 4 | CCC[C@H](NC(=O)N1CC(C(F)(F)F)Cc2c1cnn2-c1ccc(F)cc1)c1ccnc(S(C)(=O)=O)c1 (stereo partly drawn) [Example 78]
49 | 2 | CCC[C@H](NC(=O)N1CC(C(F)(F)F)Cc2c1cnn2-c1ccc(F)cc1)c1ccnc(S(C)(=O)=O)c1 (stereo partly drawn) [Example 79]
50 | 23 | CC[C@H](NC(=O)N1c2cnn(-c3ccc(F)cc3)c2CCC1C(F)(F)F)c1ccc(OC)c(S(C)(=O)=O)c1 (stereo partly drawn) [Example 82]
51 | 14 | CC[C@H](NC(=O)N1c2cnn(-c3ccc(F)cc3)c2CCC1C(F)(F)F)c1ccc(S(C)(=O)=O)c(OC)c1 (stereo partly drawn) [Example 84]
52 | 23 | CC[C@H](NC(=O)N1c2cnn(-c3ccc(F)cc3)c2CCC1C(F)(F)F)c1ccc(S(C)(=O)=O)c(O)c1 (stereo partly drawn) [Example 85]
53 | 10 | CCC[C@H](NC(=O)N1CCc2c1cnn2-c1ccc(F)cc1)c1ccnc(S(C)(=O)=O)c1 [Example 87, 1-(4-Fluorophenyl)-5,6-dihydro-1H-pyrrolo[3,2-c]pyrazole-4-carboxylic acid [(S)-1-(2-methanesulfonyl-pyridin-4-yl)-butyl]-amide]
54 | 34 | CC[C@H](NC(=O)N1CCc2c1cnn2-c1ccc(F)cc1)c1cccc(S(C)(=O)=O)c1 [Example 89]
55 | 6 | CCC[C@H](NC(=O)N1c2cnn(-c3ccc(F)cc3)c2CCC1C(F)(F)F)c1cc(F)cc(S(C)(=O)=O)c1 (stereo partly drawn) [Example 90]
56 | 18 | CCC[C@H](NC(=O)N1c2cnn(-c3ccc(Cl)cc3)c2CCC1C)c1ccnc(S(C)(=O)=O)c1 (stereo partly drawn) [Example 93]
57 | 57 | CCC[C@H](NC(=O)N1c2cnn(-c3ccc(F)cc3)c2CCC1C(F)(F)F)c1cccc(S(C)(=O)=O)n1 (stereo partly drawn) [Example 94]
58 | 6 | CCC[C@H](NC(=O)N1c2cnn(-c3ccc(F)cc3)c2CCC1C(F)(F)F)c1ccc(OC)c(S(C)(=O)=O)c1 (stereo partly drawn) [Example 95]
59 | 7 | CCC[C@H](NC(=O)N1c2cnn(-c3ccc(F)cc3)c2CCC1C(F)(F)F)c1ccc(O)c(S(C)(=O)=O)c1 (stereo partly drawn) [Example 96]
60 | 5 | CCC[C@H](NC(=O)N1c2cnn(-c3ccc(F)cc3)c2CCC1C(F)(F)F)c1ccc(OC)c(Br)c1 (stereo partly drawn) [Example 97]
